Values quoted from earlier work in patent US11589577B2, “Nanotechnology system for agricultural applications” (priority 2012, dated 2023).

Settings: binds soil ions; stated as known issue

In the case of abamectin, the “soil mobility (general statement)” value is listed as “poor soil mobility”.
